# Results published in patent publication US9663511B2, “Sphingosine 1-phosphate receptor antagonists” (ARROYO BIOSCIENCES, LLC, priority 2012, dated 2017).
# Where “and” joins values, the source holds several entries; their conditions need not be identical. Equal entries are not always repeated. Where two headings read alike, the source gives them in different places.
# Experiments:
# [1] = In vitro plasma protein binding; assay type: in vitro ADME, mouse; settings: mouse plasma, test concentration 5 nM
# [2] = Microsomal intrinsic clearance; settings: mouse, liver microsomes, mouse microsomes, test conc. 1 μM
# S1P2 receptor = S1P2 receptor (Homo sapiens (Human), UniProt O95136); test: Antagonist assay (FLIPR TETRA, inhibition of reference agonist EC80) on S1P2; assay type: cell-based; settings: tested as the citrate salt
# Description: (§1) Antagonist percentage inhibition determinations were obtained by assaying sample compounds and referencing the control (EC80) wells for each profiled (GPCR) which evaluated binding to S1P2 and S1P5 receptors. The samples were run using a single addition assay protocol. The protocol design is as follows.
# (§2) Unless specified otherwise, the sample compounds were diluted in 100% anhydrous DMSO including all dilutions. The compounds were tested as the citrate salt (1 equivalent per molecule). If the sample compound is provided in a different solvent all master stock dilutions are performed in the specified solvent. All control wells contained identical solvent final concentrations as the sample compound wells.
# (§3) The sample compounds were transferred from a master stock solution into a daughter plate that was used in the assay. Each sample compound was diluted into an assay buffer (1×HBSS with 20 mM HEPES, 2.5 mM Probenecid, and 0.4% Free Fatty Acid BSA) at an appropriate concentration to obtain final specified concentrations.
# (§4) Using the EC80 values that were determined real-time, stimulated all pre-incubated sample compounds and reference antagonists (if applicable) were compared with the EC80 values of reference agonist. These were read for 180 seconds using the FLIPR^TETRA (This assay added reference agonist to respective wells-then fluorescences measurements were collected to calculate IC50 values). All plates were subjected to appropriate baseline corrections. Once baseline corrections were processed, maximum fluorescence values were exported and data manipulated to calculate percentage activation, percentage inhibition and Z′.
# [3] = Blood concentrations and pharmacokinetics after 1 mg/kg i.v. in mice; assay type: in vivo, mouse; settings: for pharmacokinetics / blood levels following intravenous injection in mice (in words): comparison between compounds
# Description: 1 mg/kg of the compound was injected by IV and blood was withdrawn at the times in table 1. The amount of starting compound was quantified by a standard curve using MS/MS determinations.
# S1P5 receptor = S1P5 receptor (Homo sapiens (Human), UniProt Q9H228); test: Antagonist assay (FLIPR TETRA, inhibition of reference agonist EC80) on S1P5; assay type: cell-based; settings: tested as the citrate salt
# Description: as §1, §2, §3, §4
# Sequence of S1P5 receptor (Q9H228 whole entry): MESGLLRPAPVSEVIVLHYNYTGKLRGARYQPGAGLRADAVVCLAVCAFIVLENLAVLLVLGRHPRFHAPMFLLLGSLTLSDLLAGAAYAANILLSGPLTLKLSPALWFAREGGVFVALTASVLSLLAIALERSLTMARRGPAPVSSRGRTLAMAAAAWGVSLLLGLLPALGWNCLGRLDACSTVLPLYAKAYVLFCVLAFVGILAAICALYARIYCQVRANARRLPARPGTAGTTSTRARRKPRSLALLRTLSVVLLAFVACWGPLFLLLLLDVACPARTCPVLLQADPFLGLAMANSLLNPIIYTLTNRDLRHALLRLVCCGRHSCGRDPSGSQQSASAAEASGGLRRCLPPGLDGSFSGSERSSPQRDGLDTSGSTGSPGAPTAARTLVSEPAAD
# Sequence of S1P2 receptor (O95136 whole entry): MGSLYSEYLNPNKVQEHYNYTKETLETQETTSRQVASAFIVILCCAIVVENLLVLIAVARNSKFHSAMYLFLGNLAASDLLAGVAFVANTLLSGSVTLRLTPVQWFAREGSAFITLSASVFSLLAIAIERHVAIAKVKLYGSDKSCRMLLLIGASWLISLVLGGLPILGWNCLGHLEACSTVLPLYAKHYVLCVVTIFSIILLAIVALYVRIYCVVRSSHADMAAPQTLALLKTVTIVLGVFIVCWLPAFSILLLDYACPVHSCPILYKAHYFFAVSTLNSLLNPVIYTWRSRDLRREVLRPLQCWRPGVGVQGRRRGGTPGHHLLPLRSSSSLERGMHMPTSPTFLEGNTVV
structure (smiles),measurement,setting,value
C=CCn1nc(C)c2c(C(C)C)cc(NNC(=O)Nc3cc(Cl)nc(Cl)c3)nc21 [Compound 1],mean fraction bound (%),[1],99.9%
same,microsomal CLint at 1 μM,[2]; NADPH-dependent Clint (microsomal intrinsic clearance),1170 µL/min/mg
same,half-life at 1 μM,[2]; NADPH-dependent T1/2 (half-life),0.0333 h
same,microsomal CLint at 1 μM,[2]; NADPH-free Clint (microsomal intrinsic clearance),48 µL/min/mg
same,half-life at 1 μM,[2]; NADPH-free T1/2 (half-life),0.8 h
same,IC50,S1P2 receptor,1.2 nM
same,AUC0-inf,"[3]; mouse blood, individual mice",92.4 ng·h/mL and 192 ng·h/mL
same,AUC0-inf Extrapolated,"[3]; mouse blood, individual mice",19.3% and 63.8%
same,AUC0-tlast,"[3]; mouse blood, individual mice",74.6 ng·h/mL and 69.5 ng·h/mL
same,AUMC0-inf,"[3]; mouse blood, individual mice",604 h^2*ng/mL and 9010 h^2*ng/mL
same,AUMC0-inf Extrapolated,"[3]; mouse blood, individual mice",74.1% and 98.2%
same,AUMC0-tlast,"[3]; mouse blood, individual mice",12.7 h^2*ng/mL and 157 h^2*ng/mL and 166 h^2*ng/mL
same,C0,"[3]; mouse blood, individual mice",262 ng/mL and 251 ng/mL
same,CL,"[3]; mouse blood, individual mice",180 mL/min/kg and 86.7 mL/min/kg
same,MRT0-inf,"[3]; mouse blood, individual mice",6.53 h and 46.9 h
same,MRT0-tlast,"[3]; mouse blood, individual mice",0.236 h and 2.10 h and 2.39 h
same,Terminal half-life,"[3]; mouse blood, individual mice",9.08 h and 41.7 h
same,Vss,"[3]; mouse blood, individual mice",70.7 L/kg and 244 L/kg
same,"AUC0-inf Extrapolated, Mean S.D.","[3]; mouse blood, mean",41.5 (n = 2) %
same,"AUMC0-inf Extrapolated, Mean S.D.","[3]; mouse blood, mean",86.1 (n = 2) %
same,"AUMC0-inf, Mean S.D.","[3]; mouse blood, mean",4810 (n = 2) h^2*ng/mL
same,"AUMC0-tlast, Mean S.D.","[3]; mouse blood, mean",112 ± 86.0 h^2*ng/mL
same,"C0, Mean S.D.","[3]; mouse blood, mean",295 ± 66.2 ng/mL
same,Blood Concentrations,"[3]; mouse, 5 min, individual mice, LLOQ = 1 ng/mL",152 ng/mL and 143 ng/mL
same,Blood Concentrations,"[3]; mouse, 0.25 h, individual mice, LLOQ = 1 ng/mL",51.2 ng/mL and 46.3 ng/mL
same,Blood Concentrations,"[3]; mouse, 0.5 h, individual mice, LLOQ = 1 ng/mL",22.8 ng/mL and 17.1 ng/mL
same,Blood Concentrations,"[3]; mouse, 1 h, individual mice, LLOQ = 1 ng/mL",7.90 ng/mL and 6.44 ng/mL
same,Blood Concentrations,"[3]; mouse, 2 h, individual mice, LLOQ = 1 ng/mL",1.13 ng/mL and 3.12 ng/mL and 2.96 ng/mL
same,Blood Concentrations,"[3]; mouse, 4 h, individual mice, LLOQ = 1 ng/mL",BLQ and 1.98 ng/mL
same,Blood Concentrations,"[3]; mouse, 6 h, individual mice, LLOQ = 1 ng/mL",BLQ and 2.25 ng/mL
same,Blood Concentrations,"[3]; mouse, 12 h, individual mice, LLOQ = 1 ng/mL",BLQ and 2.04 ng/mL
same,pharmacokinetics / blood levels following intravenous injection in mice (in words),[3]; mouse,substantially improved pharmacokinetics
same,pharmacokinetics / blood levels following intravenous injection in mice (in words),"[3]; mouse, listed as compound 1",highest drug blood levels over time
same,AUC(0-t),"[3]; mouse, whole blood, iv, 1 mg/kg, mouse blood, individual mice, read-out: AUC0-tlast",53.9 ng·h/mL
same,C0,"[3]; mouse, whole blood, iv, 1 mg/kg, mouse blood, individual mice, read-out: C0",371 ng/mL
same,AUC0-inf,"[3]; mouse, whole blood, iv, 1 mg/kg, mouse blood, mean, read-out: AUC0-inf, Mean S.D.",142 ng·h/mL
same,AUC(0-t),"[3]; mouse, whole blood, iv, 1 mg/kg, mouse blood, mean, read-out: AUC0-tlast, Mean S.D.",66 ± 10.8 ng·h/mL
same,clearance,"[3]; mouse, whole blood, iv, 1 mg/kg, mouse blood, mean, read-out: CL, Mean S.D. (converted)",134 mL/min/kg
same,MRT inf,"[3]; mouse, whole blood, iv, 1 mg/kg, mouse blood, mean, read-out: MRT0-inf, Mean S.D.",26.7 h
same,MRT last,"[3]; mouse, whole blood, iv, 1 mg/kg, mouse blood, mean, read-out: MRT0-tlast, Mean S.D.",1.58 h
same,half-life,"[3]; mouse, whole blood, iv, 1 mg/kg, mouse blood, mean, read-out: Terminal half-life, Mean S.D. (converted)",25.4 h
same,Vd,"[3]; mouse, whole blood, iv, 1 mg/kg, mouse blood, mean, read-out: Vss, Mean S.D.",157 L/kg
same,concentration at 5 min,"[3]; mouse, whole blood, iv, 1 mg/kg, mouse, 5 min, individual mice, LLOQ = 1 ng/mL, read-out: Blood Concentrations",188 ng/mL
same,concentration at 5 min,"[3]; mouse, whole blood, iv, 1 mg/kg, mouse, 5 min, mean of 3 mice, read-out: Blood Concentrations, Mean S.D.",161 ± 23.8 ng/mL
same,concentration at 0.25 h,"[3]; mouse, whole blood, iv, 1 mg/kg, mouse, 0.25 h, individual mice, LLOQ = 1 ng/mL, read-out: Blood Concentrations",48.3 ng/mL
same,concentration at 0.25 h,"[3]; mouse, whole blood, iv, 1 mg/kg, mouse, 0.25 h, mean of 3 mice, read-out: Blood Concentrations, Mean S.D.",48.6 ± 2.46 ng/mL
same,concentration at 0.5 h,"[3]; mouse, whole blood, iv, 1 mg/kg, mouse, 0.5 h, individual mice, LLOQ = 1 ng/mL, read-out: Blood Concentrations",14.9 ng/mL
same,concentration at 0.5 h,"[3]; mouse, whole blood, iv, 1 mg/kg, mouse, 0.5 h, mean of 3 mice, read-out: Blood Concentrations, Mean S.D.",18.3 ± 4.08 ng/mL
same,concentration at 1 h,"[3]; mouse, whole blood, iv, 1 mg/kg, mouse, 1 h, individual mice, LLOQ = 1 ng/mL, read-out: Blood Concentrations",5.11 ng/mL
same,concentration at 1 h,"[3]; mouse, whole blood, iv, 1 mg/kg, mouse, 1 h, mean of 3 mice, read-out: Blood Concentrations, Mean S.D.",6.48 ± 1.4 ng/mL
same,concentration at 2 h,"[3]; mouse, whole blood, iv, 1 mg/kg, mouse, 2 h, mean of 3 mice, read-out: Blood Concentrations, Mean S.D.",2.4 ± 1.11 ng/mL
same,concentration at 4 h,"[3]; mouse, whole blood, iv, 1 mg/kg, mouse, 4 h, individual mice, LLOQ = 1 ng/mL, read-out: Blood Concentrations",2.22 ng/mL
same,concentration at 4 h,"[3]; mouse, whole blood, iv, 1 mg/kg, mouse, 4 h, mean (n = 2 for Cmpd-1), read-out: Blood Concentrations, Mean S.D.",2.1 ng/mL
same,concentration at 6 h,"[3]; mouse, whole blood, iv, 1 mg/kg, mouse, 6 h, individual mice, LLOQ = 1 ng/mL, read-out: Blood Concentrations",2.55 ng/mL
same,concentration at 6 h,"[3]; mouse, whole blood, iv, 1 mg/kg, mouse, 6 h, mean (n = 2 for Cmpd-1), read-out: Blood Concentrations, Mean S.D.",2.4 ng/mL
same,concentration at 12 h,"[3]; mouse, whole blood, iv, 1 mg/kg, mouse, 12 h, individual mice, LLOQ = 1 ng/mL, read-out: Blood Concentrations",1.36 ng/mL
same,concentration at 12 h,"[3]; mouse, whole blood, iv, 1 mg/kg, mouse, 12 h, mean (n = 2 for Cmpd-1), read-out: Blood Concentrations, Mean S.D.",1.7 ng/mL
same,IC50,S1P5 receptor,2.2 nM
